Measurements from patent publication EP0435794A1, “Alkenyl- or heteroaryl thio, sulfone, sulfoxy herbicides” (RHONE-POULENC AGROCHIMIE, priority 1989, dated 1991).

What was measured:
Type in all cases: in vivo
Alopecurus myosuroïdes = assay: Exemple A: herbicide application, pre-emergence; conditions: dose 4 Kg m.a./ha, notation 0 à 5 after 24 days
Excerpt: (§1) Exemple A - Application herbicide, en prélevée des espèces végétales
(§2) Dans des pots de 7 x 7 x 8 cm remplis de terre agricole légère, on sème un nombre de graines déterminé en fonction de l'espèce végétale et de la grosseur de la graine.
(§3) Les pots sont traités par pulvérisation de bouillie en quantité correspondant à une dose volumique d'application de 500 l/ha et contenant la matière active à la concentration désirée.
(§4) Le traitement avec la bouillie est donc effectué sur des graines non recouvertes de terre (on utilise le terme de bouillie pour désigner, en général, les compositions diluées à l'eau, telles qu'on les applique sur les végétaux).
(§5) La bouillie utilisée pour le traitement est une solution ou suspension de la matière active dans un mélange acétone/eau en proportions 50/50, en présence de 0,05 % en poids de cemulsol NP 10 (agent tensio-actif) constitué d'alkylphénol polyéthoxylé, notamment de nonylphénol polyéthoxylé) et 0,04 % en poids de tween 20 (agent tensio-actif constitué d'un oléate de dérivé polyoxyéthyléné du sorbitol).
(§6) Dans le cas d'une suspension, celle-ci est obtenue en mélangeant et broyant les ingrédients dans un microniseur de façon à obtenir une grosseur moyenne de particules inférieure à 40 microns.
(§7) Après traitement, on recouvre les graines d'une couche de terre d'environ 3 mm d'épaisseur.
(§8) Les pots sont alors placés dans des bacs destinés à recevoir l'eau d'arrosage, en subirrigation, et maintenus pendant 24 jours à température ambiante sous 70 % d'humidité relative.
(§9) Le relevé est effectué de la façon suivante:
(§10) Au bout de 24 jours, on mesure un pourcentage (D) des destructions du nombre de pieds dans le pot traité par rapport au nombre de plantes dans les pots non traités (témoin). On mesure, sur les plantes traitées restantes, le pourcentage de réduction de taille (RT) par rapport aux plantes témoin.
(§11) Le pourcentage du volume foliaire non détruit par le produit est donc donné par la formule: ([100-D] x [100-RT])/(100)= A [formula]
(§12) Cette valeur A est transformée en notation de 0 à 5 selon l'échelle suivante:
(§13) Les résultats obtenus sont présentés après l'exemple B pour des doses d'application de 4000 g/ha à 1000 g/ha.
(§14) Les espèces végétales utilisées dans ces exemples A et B sont: […]

Avena fatua = assay: Exemple A: herbicide application, pre-emergence; conditions: dose 4 Kg m.a./ha, notation 0 à 5 after 24 days
Excerpt: as §1, §2, §3, §4, §5, §6, §7, §8, §9, §10, §11, §12, §13, §14

Cyperus esculentus = assay: Exemple A: herbicide application, pre-emergence; conditions: dose 4 Kg m.a./ha, notation 0 à 5 after 24 days
Excerpt: as §1, §2, §3, §4, §5, §6, §7, §8, §9, §10, §11, §12, §13, §14

Digitaria sanguinalis = assay: Exemple A: herbicide application, pre-emergence; conditions: dose 4 Kg m.a./ha, notation 0 à 5 after 24 days
Excerpt: as §1, §2, §3, §4, §5, §6, §7, §8, §9, §10, §11, §12, §13, §14

Echinochloa crus galli [1] = assay: Exemple A: herbicide application, pre-emergence; conditions: dose 4 Kg m.a./ha, notation 0 à 5 after 24 days
Excerpt: as §1, §2, §3, §4, §5, §6, §7, §8, §9, §10, §11, §12, §13, §14

[2] = test system: ORYSA SATIVA Cv Nihonbare; assay: Exemple D: herbicide application on submerged plants (rice paddy model), transplanted rice; conditions: rice transplanted 4 days before treatment, 24 days
Excerpt: (§15) Exemple D : Application herbicide en pré ou post levée d'espèces végétales submergées (modèle rizière)
(§16) Dans des pots de 9 x 9 x 9 cm remplis de terre agricole on sème un nombre de graines ou on plante un nombre de bulbes ou rhizomes déterminé en fonction de l'espèce végétale ou de la grosseur des organes. Pour le riz, 4 plants au stade 2-3 feuilles sont transplantés dans un pot rempli de terre végétale 4 jours avant le traitement.
(§17) Les pots sont ensuite immergés dans un bac de taille adapté aux pots de manière à ce que l'eau recouvre de 1 à 2 cm la surface du sol.
(§18) Le stade de traitement est le stade prélevée ou 1 à 2 feuilles développées des adventices. Le traitement est effectué par répartition de la bouillie dans l'eau de submersion en quantité correspondant à une dose d'application de 500 l/ha et contenant la matière active à la concentration requise.
as §5, with “proportion” for “proportions”, “Cemulsol” for “cemulsol”, “tensioactif” for “tensio-actif)”
(§19) Dans le cas d'une suspension, celle-ci est obtenue en mélangeant et broyant les ingrédients dans un microniseur de façon à obtenir une grosseur moyenne de particules inférieures à 40 microns.
(§20) Le niveau d'eau de submersion est ensuite maintenu par apport d'eau tout au long de la durée de l'expérimentation soit […]. Les bacs contenant les pots sont placés dans une serre régulée en température à 18°C la nuit et 22°C le jour et en humidité à 70 % d'humidité relative.
(§21) Au bout de 24 jours, on compte le nombre de plantes vivantes dans les pots traités par la bouillie contenant la matière active à tester et le nombre de plantes vivantes dans un pot témoin traité selon les mêmes conditions, mais au moyen d'une bouillie ne contenant pas de matière active. On mesure ainsi un pourcentage (D) des destructions du nombre de pieds dans le pot traité par rapport au nombre de plantes dans les pots non traités (témoin). On mesure, sur les plantes traitées restantes, le pourcentage de réduction de taille (RT) par rapport aux plantes témoin. Le pourcentage du volume foliaire non détruit par le produit est donc donné par la formule: ([100-D] x [100-RT])/(100)= A [formula]
as §12
(§22) Les résultats obtenus sont présentés dans le tableau suivant pour des doses d'application de 500, 1000 ou 2000 g de matière active par hectare.
COMPOSE N°5/RIZ (transplanté 4 jours avant traitement)

ALISMA CANALICULATUM = assay: Exemple D: herbicide application pre or post emergence on submerged plants (rice paddy model); conditions: 2-leaf stage, 24 days
Excerpt: as §15, §16, §17, §18
as §5, with “proportion” for “proportions”, “Cemulsol” for “cemulsol”, “tensioactif” for “tensio-actif)”
as §19, §20, §21, §12, §22

CYPERUS SEROTINUS = assay: as above; conditions: 24 days; for % d'efficacité CYPERUS SEROTINUS (1 feuille): 1-leaf stage; for % d'efficacité CYPERUS SEROTINUS (prélevée): pre-emergence
Excerpt: as §15, §16, §17, §18
as §5, with “proportion” for “proportions”, “Cemulsol” for “cemulsol”, “tensioactif” for “tensio-actif)”
as §19, §20, §21, §12, §22

Echinochloa crus galli [3] = assay: as above; conditions: 24 days; for % d'efficacité ECHINOCHLOA CRUS GALLI (1 feuille): 1-leaf stage; for % d'efficacité ECHINOCHLOA CRUS GALLI (prélevée): pre-emergence
Excerpt: as §15, §16, §17, §18
as §5, with “proportion” for “proportions”, “Cemulsol” for “cemulsol”, “tensioactif” for “tensio-actif)”
as §19, §20, §21, §12, §22

[4] = 500 g de matière active par hectare
[5] = 1000 g de matière active par hectare
[6] = 2000 g de matière active par hectare

C=C(CS(=O)(=O)c1sccc1Cl)c1cccc(F)c1 [compound 5, 1-[(3-chloro 2-thiényl)sulfonyl] 2-(3-fluorophényl) 2-propène]
4 (10 à 30): % d'efficacité ALISMA CANALICULATUM (2 feuilles) (ALISMA CANALICULATUM; [5]) | % d'efficacité ALISMA CANALICULATUM (2 feuilles) (ALISMA CANALICULATUM; [6]) | % d'efficacité CYPERUS SEROTINUS (1 feuille) (CYPERUS SEROTINUS; [5]) | % d'efficacité ECHINOCHLOA CRUS GALLI (1 feuille) (Echinochloa crus galli [3]; [4]) | % d'efficacité ECHINOCHLOA CRUS GALLI (1 feuille) (Echinochloa crus galli [3]; [5]) | % d'efficacité ECHINOCHLOA CRUS GALLI (1 feuille) (Echinochloa crus galli [3]; [6])
0 (90 à 100): % d'efficacité ORYSA SATIVA Cv Nihonbare [2, 4] | % d'efficacité ORYSA SATIVA Cv Nihonbare [2, 5] | % d'efficacité ORYSA SATIVA Cv Nihonbare [2, 6]
5 (O à 10): ACTIVITE HERBICIDE DE PRELEVEE ALO (Alopecurus myosuroïdes) | ACTIVITE HERBICIDE DE PRELEVEE AVE (Avena fatua) | ACTIVITE HERBICIDE DE PRELEVEE CYP (Cyperus esculentus) | ACTIVITE HERBICIDE DE PRELEVEE DIG (Digitaria sanguinalis) | ACTIVITE HERBICIDE DE PRELEVEE ECH (Echinochloa crus galli [1])
3 (30 à 50): % d'efficacité ALISMA CANALICULATUM (2 feuilles) (ALISMA CANALICULATUM; [4]) | % d'efficacité CYPERUS SEROTINUS (1 feuille) (CYPERUS SEROTINUS; [4])
2 (50 à 70): % d'efficacité CYPERUS SEROTINUS (prélevée) (CYPERUS SEROTINUS; [4])
5 (0 à 10): % d'efficacité CYPERUS SEROTINUS (1 feuille) (CYPERUS SEROTINUS; [6]) | % d'efficacité CYPERUS SEROTINUS (prélevée) (CYPERUS SEROTINUS; [5]) | % d'efficacité CYPERUS SEROTINUS (prélevée) (CYPERUS SEROTINUS; [6]) | % d'efficacité ECHINOCHLOA CRUS GALLI (prélevée) (Echinochloa crus galli [3]; [4]) | % d'efficacité ECHINOCHLOA CRUS GALLI (prélevée) (Echinochloa crus galli [3]; [5]) | % d'efficacité ECHINOCHLOA CRUS GALLI (prélevée) (Echinochloa crus galli [3]; [6])
